Experimental findings from patent US20100048641A1, “Use of Adenosine A1 and/or Dual A1/2ab Agonists for Production of Medicaments for Treating Diseases” (BAYER HEALTHCARE AG LAW AND PATENTS,PATENTS AND LICENSING, priority 2006, published 2010) are described below.

The target in series [1] is T1, adenosine A2b receptor (Homo sapiens, UniProt P29275).
T1 construct: expressed in transfected cells; host or cells: CHO (Chinese Hamster Ovary) cells, stably transfected
T1 sequence (P29275 1-332): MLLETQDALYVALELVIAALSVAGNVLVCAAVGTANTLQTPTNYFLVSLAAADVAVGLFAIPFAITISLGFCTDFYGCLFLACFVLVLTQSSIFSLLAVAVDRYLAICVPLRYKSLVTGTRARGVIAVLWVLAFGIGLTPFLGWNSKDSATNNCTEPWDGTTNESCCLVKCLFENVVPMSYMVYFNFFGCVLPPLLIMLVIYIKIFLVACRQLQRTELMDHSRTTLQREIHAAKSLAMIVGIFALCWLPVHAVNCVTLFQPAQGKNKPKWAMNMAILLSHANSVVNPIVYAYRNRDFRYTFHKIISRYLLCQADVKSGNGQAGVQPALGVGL
Briefly: Indirect determination of adenosine agonism by gene expression (luciferase, cAMP-dependent promoter), A2b cells. The following applies: CHO cells stably transfected with A2b receptor cDNA; 50% of maximum stimulation of luciferase. It is filed as cell-based. The text has this: (§1) Indirect Determination of the Adenosine Agonism by Way of Gene Expression
(§2) Cells of the CHO (Chinese Hamster Ovary) permanent cell line are transfected stably with the cDNA for the adenosine receptor subtypes A1, A2a and A2b. The adenosine A1 receptors are coupled to the adenylate cyclase by way of Gi proteins, while the adenosine A2a and A2b receptors are coupled by way of Gs proteins. In correspondence with this, the formation of cAMP in the cell is inhibited or stimulated, respectively. After that, expression of the luciferase is modulated by way of a cAMP-dependent promoter. The luciferase test is optimized, with the aim of high sensitivity and reproducibility, low variance and good suitability for implementation on a robot system, by varying several test parameters, such as cell density, duration of the growth phase and the test incubation, forskolin concentration and medium composition. The following test protocol is used for pharmacologically characterizing cells and for the robot-assisted substance screening:
(§3) The stock cultures are grown, at 37° C. and under 5% CO2, in DMEM/F12 medium containing 10% FCS (foetal calf serum) and in each case split 1:10 after 2-3 days. The test cultures are seeded in 384-well plates with 2000 cells per well and grown at 37° C. for approx. 48 hours. The medium is then replaced with a physiological sodium chloride solution (130 mM sodium chloride, 5 mM potassium chloride, 2 mM calcium chloride, 20 mM HEPES, 1 mM magnesium chloride hexahydrate, 5 mM sodium bicarbonate, pH 7.4). The substances to be tested, which are dissolved in DMSO, are pipetted into the test cultures (maximum final concentration of DMSO in the test mixture: 0.5%) in a dilution series of from 1.1×10^−11M to 3×10^−6M (final concentration). 10 minutes later, forskolin is added to the A1 cells and all the cultures are subsequently incubated at 37° C. for four hours. After that, 35 μl of a solution which is composed of 50% lysis reagent (30 mM disodium hydrogenphosphate, 10% glycerol, 3% TritonX100, 25 mM TrisHCl, 2 mM dithiotreitol (DTT), pH 7.8) and 50% luciferase substrate solution (2.5 mM ATP, 0.5 mM luciferin, 0.1 mM coenzyme A, 10 mM tricine, 1.35 mM magnesium sulfate, 15 mM DTT, pH 7.8) are added to the test cultures, which are shaken for approx. 1 minute and the luciferase activity is measured using a camera system. The EC50 values are determined, i.e., the concentrations at which 50% of the luciferase answer is inhibited in the case of the A1 cell, and, respectively, 50% of the maximum stimulation with the corresponding substance is achieved in the case of the A2b and A2a cells. […] Pharmacol., 357 (1998), 1-9).
(§4) Table 1 below lists the EC50 values of representative working examples of compounds of the formula (IA) for the receptor stimulation on adenosine A1, A2a and A2b receptor subtypes: […]

Series [2] concerns the target T2, adenosine A2a receptor (Homo sapiens, UniProt P29274).
T2 construct: expressed in transfected cells; host or cells: CHO (Chinese Hamster Ovary) cells, stably transfected
Briefly: Indirect determination of adenosine agonism by gene expression (luciferase, cAMP-dependent promoter), A2a cells. In kind it is cell-based. Particulars: CHO cells stably transfected with A2a receptor cDNA; 50% of maximum stimulation of luciferase.
Text: as §1, §2, §3, §4

Series [3] concerns the target T3, adenosine A1 receptor (Homo sapiens, UniProt P30542).
T3 construct: expressed in transfected cells; host or cells: CHO (Chinese Hamster Ovary) cells, stably transfected
T3 sequence (P30542 1-326): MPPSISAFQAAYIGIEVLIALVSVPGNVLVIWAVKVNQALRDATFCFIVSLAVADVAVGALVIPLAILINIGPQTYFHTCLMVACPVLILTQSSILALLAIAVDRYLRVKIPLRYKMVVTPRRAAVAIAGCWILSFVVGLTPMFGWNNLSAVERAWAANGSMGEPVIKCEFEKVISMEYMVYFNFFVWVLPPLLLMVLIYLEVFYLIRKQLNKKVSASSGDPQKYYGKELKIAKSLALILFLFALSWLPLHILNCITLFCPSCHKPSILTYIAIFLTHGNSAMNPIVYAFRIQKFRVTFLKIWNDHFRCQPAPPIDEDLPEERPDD
Nature of the series: Indirect determination of adenosine agonism by gene expression (luciferase, cAMP-dependent promoter), A1 cells. It is filed as cell-based. The following applies: CHO cells stably transfected with A1 receptor cDNA; 1 μM forskolin; concentration at which 50% of the luciferase answer is inhibited.
Text: as §1, §2, §3, §4

A word on the melting point: it is the temperature of the solid-liquid transition. As a reminder, the EC50 is the concentration giving half of the maximal effect. A higher EC50 goes with weaker potency.

Structures can show the parent of a compound that is named as a salt.

T2 sequence (P29274 whole entry): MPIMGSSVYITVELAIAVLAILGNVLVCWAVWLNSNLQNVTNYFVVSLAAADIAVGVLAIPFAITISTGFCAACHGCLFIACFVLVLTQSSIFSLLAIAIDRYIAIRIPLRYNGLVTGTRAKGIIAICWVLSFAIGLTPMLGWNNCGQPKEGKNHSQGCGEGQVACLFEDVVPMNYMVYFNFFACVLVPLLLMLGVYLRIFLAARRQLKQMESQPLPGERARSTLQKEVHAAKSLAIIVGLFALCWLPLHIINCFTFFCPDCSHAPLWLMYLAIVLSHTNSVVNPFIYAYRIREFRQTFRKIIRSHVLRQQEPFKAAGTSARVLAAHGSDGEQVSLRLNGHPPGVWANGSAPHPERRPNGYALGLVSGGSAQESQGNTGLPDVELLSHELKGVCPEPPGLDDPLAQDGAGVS

On to `N#Cc1c(N)nc(SCc2csc(Nc3cccc(Cl)c3)n2)c(C#N)c1-c1ccc(OCC(O)CO)cc1` (stereo not shown) [Example 1, 2-Amino-6-[({2-[(3-chlorophenyl)amino]-1,3-thiazol-4-yl}methyl)thio]-4-[4-(2,3-dihydroxypropoxy)phenyl]pyridine-3,5-dicarbonitrile], for which the melting point fell in the range of 192 to 194 °C.
As for `Cc1cccc(Nc2nc(CSc3nc(N)c(C#N)c(-c4ccc(OCC(O)CO)cc4)c3C#N)cs2)c1` (stereo not shown) [Example 2], the concentration for a half-maximal effect (EC50) in series [1] stood at 6.1 nM; in series [2], 747 nM; in series [3], 9.9 nM.
For `N#Cc1c(N)nc(SCc2csc(Nc3ccc(F)cc3)n2)c(C#N)c1-c1ccc(OCCO)cc1` [Example 8, 2-Amino-6-[({2-[(4-fluorophenyl)amino]-1,3-thiazol-4-yl}methyl)thio]-4-[4-(2-hydroxyethoxy)-phenyl]pyridine-3,5-dicarbonitrile], in that order: 1 nM, 300 nM and 1 nM.
As to `N#Cc1c(N)nc(SCc2csc(Nc3ccc(F)cc3F)n2)c(C#N)c1-c1ccc(OCCO)cc1` [Example 10, 2-Amino-6-[({2-[(2,4-difluorophenyl)amino]-1,3-thiazol-4-yl}methyl)thio]-4-[4-(2-hydroxyethoxy)phenyl]pyridine-3,5-dicarbonitrile], the 50% effective concentration (EC50) in series [1] was 1 nM; in series [2], > 200 nM; in series [3], 2 nM.
Taken in the same sequence, the figures for `N#Cc1c(N)nc(SCc2csc(Nc3ccc(C(=O)O)cc3)n2)c(C#N)c1-c1ccc(OCCO)cc1` [Example 13, 4-({4-[({6-Amino-3,5-dicyano-4-[4-(2-hydroxyethoxy)phenyl]pyridin-2-yl}thio)methyl]-1,3-thiazol-2-yl}amino)benzoic acid] were 0.1 nM, 236 nM and 0.2 nM.
Consider `N#Cc1ccc(Nc2nc(CSc3nc(N)c(C#N)c(-c4ccc(OCCO)cc4)c3C#N)cs2)cc1` [Example 21], for which the values for the concentration for a half-maximal effect (EC50) in series [1], in series [2] and in series [3] were 0.5 nM, 103 nM and 0.7 nM, respectively.
Consider `COCCOc1ccc(-c2c(C#N)c(N)nc(SCc3csc(Nc4ccc(C)cc4)n3)c2C#N)cc1` [Example 26], for which the EC50 in series [1] was 74 nM; in series [2], > 3000 nM; in series [3], 23 nM.
Taken in the same sequence, the figures for `N#Cc1c(N)nc(SCc2csc(Nc3cccc(Cl)c3)n2)c(C#N)c1-c1ccc(OC[C@@H](O)CO)cc1` [Example 35] were 0.3 nM, 142 nM and 0.4 nM.
For the compound `COc1cc(Nc2nc(CSc3nc(N)c(C#N)c(-c4ccc(OC[C@@H](O)CO)cc4)c3C#N)cs2)ccc1F` [Example 39], the concentration for a half-maximal effect (EC50) in series [1] came out at 1.4 nM; in series [2] it was 1200 nM; in series [3] it was 0.3 nM.
Consider `N#Cc1c(N)nc(SCc2csc(Nc3cccc(F)c3)n2)c(C#N)c1-c1ccc(OC[C@@H](O)CO)cc1` [Example 44], for which the values for the EC50 in series [1], in series [2] and in series [3] were 0.3 nM, 140 nM and 0.6 nM, respectively.
Take `N#Cc1c(N)nc(SCc2csc(Nc3ccc(F)c(Cl)c3)n2)c(C#N)c1-c1ccc(OC[C@@H](O)CO)cc1` [Example 48]: the half-maximal effective concentration (EC50) in series [1] was 0.1 nM; in series [2], 140 nM; in series [3], 0.4 nM.
Consider `N#Cc1c(N)nc(SCc2csc(Nc3ccc(F)cc3)n2)c(C#N)c1-c1ccc(OCCN)cc1` [Example 70, 2-Amino-4-[4-(2-aminoethoxy)phenyl]-6-[({2-[(4-fluorophenyl)amino]-1,3-thiazol-4-yl}methyl)-thio]pyridine-3,5-dicarbonitrile hydrochloride], for which the EC50 in series [1] was 28 nM; in series [2], > 3000 nM; in series [3], 2.3 nM.
